In one data set the test system is Prothrombin. Description: Filter binding specificity assay (Table 11), prothrombin. The arrangement: dose or concentration left out as unconfirmed. The following applies: listed as Clone 29 DNA. The protocol:
(§1) Briefly, radiolabeled aptamer DNA at about a concentration of about 1 nM was incubated with the indicated protein for several minutes at room temperature, followed by filtration of the aptamer-protein mixture through a nitrocellulose filter. The filter was washed with 3 mL of selection buffer and then radioactivity bound to the filters was determined as a % of input radioactivity. Binding data is shown for both unselected 96-mer DNA and for two separate experiments with clone #29 96-mer. All proteins were tested at about 1M concentration except human serum albumin which was used at 100M.

For another data set, the system named is Kallikrein. The data set is described as follows: Filter binding specificity assay (Table 11), kallikrein. As to conditions: Kallikrein about 1 µM. The protocol: as §1
For data set [1], the system named is thrombin. Description: Filter binding specificity assay (Table 11), thrombin. As to conditions: DNA about 1 nM. The protocol:
as §1

In the next data set the test system is Plasmin. The data set is described as follows: Filter binding specificity assay (Table 11), plasmin. Also noted: dose or concentration left out as unconfirmed. The protocol: as §1
In a further data set the test system is human serum albumin. Description: Filter binding specificity assay (Table 11), albumin. The following applies: human serum albumin 100 µM; listed as Clone 29 DNA. The protocol: as §1
The subject of the next data set is Chymotrypsin. Description: Filter binding specificity assay (Table 11), chymotrypsin. As to conditions: Chymotrypsin about 1 µM. The protocol: as §1
Data set [2] concerns the target thrombin. Description: Nitrocellulose filter binding, dissociation constant for thrombin. The arrangement: species or system human. How it is done: Filter binding assays using aptamer DNA from 14 of the clones were used to determine the dissociation constants (KD) for thrombin as follows: Thrombin concentrations between […] and 1 nM were incubated at room temperature in selection buffer for 5 minutes in the presence of […] of radiolabeled 96-mer derived from cloned Round 5 aptamer DNA. After incubation, the thrombin and aptamer mixture was applied to nitrocellulose filters (0.2 micron, 2.4 cm diameter) that were pretreated with salmon sperm DNA (1 mg/ml DNA in selection buffer) and washed twice with 1 ml selection buffer. After application of thrombin mixture, the filters were washed three times with 1 ml selection buffer. The radioactivity retained on the filters was then determined. KD values for the individual clones ranged from 50 to >2000 nM.
One of these two clones (#17) and the original unselected pool was analyzed for thrombin binding by nitrocellulose filter assay described above using DNA labeled with ^32 P to permit analysis of thrombin binding characteristics. The labeled DNA was synthesized by PCR and contained 5-(1-pentynyl)-2'-deoxyuridine in order to retain the original selected DNA structures. The DNA was incubated with thrombin at various concentrations between 10 nM and 10M to obtain the KD values for thrombin binding. The KD of the unselected pool was […] while the KD of clone 17 was 400 nM. […]

The next data set relates to TPA. The data set is described as follows: Filter binding specificity assay (Table 11), TPA. As to conditions: TPA about 1 µM. The protocol:
as §1

For another data set, the system named is Trypsin. Description: Filter binding specificity assay (Table 11), trypsin. The arrangement: dose or concentration left out as unconfirmed. The protocol:
as §1

The subject of data set [3] is thrombin. Description: Clotting time, thrombin-catalyzed conversion of fibrinogen to fibrin. The format is biochemical. As to conditions: thrombin 10 nM. How it is done: Clotting time for the thrombin-catalyzed conversion of fibrinogen (2.0 mg/ml in selection buffer) to fibrin at 37 C. was measured using a precision coagulation timer apparatus (Becton-Dickinson, Cat. nos. 64015, 64019, 64020). Thrombin (10 nM) incubated with fibrinogen alone clotted in 40 sec, thrombin incubated with fibrinogen and P1 nuclease (Boehringer-Mannheim, Indianapolis, Ind.) clotted in 39 sec, thrombin incubated with fibrinogen and aptamer clone #5 (200 nM) clotted in 115 sec, and thrombin incubated with fibrinogen, clone #5 (200 nM) and […] clotted in 40 sec. All incubations were carried out at 37 C. using reagents prewarmed to 37 C. Aptamer DNA or, when present, P1 nuclease, was added to the fibrinogen solution prior to addition of thrombin.

The next data set deals with ancrod. Description: Ancrod fibrinogen clotting assay. The format is biochemical. The protocol:
The thrombin 21-mer ancrod assay was conducted as follows. Ancrod was suspended in sterile water at a concentration of 44 U/mL. 10 L ancrod solution was added to 95 L of selection buffer prewarmed to 37 C. 100 L of this mixture was transferred to the coagulation cup of the fibrometer described above, followed by addition of 200 L of fibrinogen and 20 L of 21-mer DNA (both prewarmed to 37 C). TE buffer pH 7.0 was used as a control lacking DNA. The control clot time was 25 seconds while the clot time in the presence of 500 nM 21-mer was 24 seconds and was 26 seconds in the presence of 33M 21-mer.

For data set [4], the system named is thrombin. Description: Thrombin inhibition Ki. The format is biochemical. The following applies: Table 7. From the text: The binding affinity of the aptamers herein with respect to targets and other molecules is defined in terms of Kd. The value of this dissociation constant can be determined directly by well-known methods, and can be computed even for complex mixtures by methods such as those, for example, set forth in Caceci, M., et al., Byte (1984) 9:340-362. It has been observed, however, that for some small oligonucleotides, direct determination of Kd is difficult, and can lead to misleadingly high results. Under these circumstances, a competitive binding assay for the target molecule or other candidate substance may be conducted with respect to substances known to bind the target or candidate. The value of the concentration at which 50% inhibition occurs (Ki) is, under ideal conditions, equivalent to Kd. However, in no event can Ki be less than Kd. Thus, determination of Ki, in the alternative, sets a maximal value for the value of Kd. Under those circumstances where technical difficulties preclude accurate measurement of Kd, measurement of Ki can conveniently be substituted to provide an upper limit for Kd.
Independent verification of the Ki for the nonmodified 15-mer was made by determining the extent of thrombin inhibition with varying DNA concentration.

Data set [5] deals with thrombin. Description: Prothrombin time test (PT) after intravenous aptamer in monkeys. As to conditions: high dose infusion 0.5 mg/kg/min. The format is in vivo, cynomologous monkeys. How it is done:
Two thrombin aptamers were administered to adult male cynomologous monkeys. Unsubstituted 15-mer DNA with the sequence 5' GGTTGGTGTGGTTGG 3' and an analog, 5' GGTTGGTGTGGTT*G*G 3', containing thioate internucleotide linkages at the indicated positions were used. Aptamer was delivered as an intravenous bolus or infusion and then blood samples were withdrawn at various times after delivery of the bolus or during and after infusion. The catheter was heparinized after the 10 minute timepoint. The animals were not systematically heparinized.
Thrombin inhibition was measured by a prothrombin time test (PT) using a commercially available kit, reagents and protocol (Sigma Diagnostics, St. Louis, catalog Nos. T 0263 and 870-3). Inhibition of thrombin was indicated by an increased clot time compared to the control in the PT test. Clot times were obtained by withdrawing a sample of blood, spinning out red cells and using the plasma in the PT test. Control thrombin PT clot time values were obtained several minutes prior to administration of aptamer. Briefly, the PT assay was conducted using 0.1 mL of monkey plasma prewarmed to 37 C. and 0.2 mL of a 1:1 mixture of thromboplastin (used according to manufacturers instructions) and CaCl2 (25 mM), also prewarmed to 37 C. Thrombin clot times were measured with a fibrometer as described above. […]

The next data set deals with human blood. The data set is described as follows: Extracorporeal hemodialysis circuit blood coagulation. The following applies: heparin 1 U/mL. How it is done: A bolus of 15-mer DNA was delivered to human blood at 37 C. to give an aptamer concentration of 10M. The blood was contained in an extracorporeal hemodialysis circuit (Travenol, Model No. CA-90). Pressure proximal to the hemodialysis filter was monitored to determine the time after administration of aptamer that coagulation occurred. Blood coagulation was marked by a pressure increase from about 50 mm Hg observed with uncoagulated blood (blood flow rate 200 mL/min) to pressure of at least 400 mm Hg.

Several values for one entry are separate records, joined by “and”; a condition that tells them apart may be missing. Equal entries are not always repeated.

Turning to “5' CGGGGAGAGGTTGGTGTGGTTGGCAATGGCTAGAGTAGTGAC GTTTTCGCGGTGAGGTCC 3' [Clone #29]”, the “% Bound” value was 11.0% and 9.5% in the data set on Prothrombin; < 0.5% in the data set with Kallikrein; 0% in the data set with thrombin [1] (Control, no protein); 59.0% in the data set on thrombin [1] (Thrombin about 1 µM); 15.0% in the data set with Plasmin; 2.0% and < 0.5% with human serum albumin. Besides, the “% Bound” value in the data set with Chymotrypsin, in the data set with TPA and with Trypsin was < 0.5% throughout. Also, the dissociation constant (Kd) – broadly, the concentration at which binding is half-saturated – at thrombin [2] is ~200 nM.
5' GGGGGTT 3' [reference compound] displayed a thrombin clotting time with thrombin [3] of 26 s.
5' GGTTGGG 3': in the data set on thrombin [3], the thrombin clotting time amounted to 38 s.
As to “5' GGTTGGGCTGGTTGGGTTGGG 3' (chemistry not given here) [Compound 21-mer, 21-mer thrombin aptamer]”, the values for the clot time with ancrod (500 nM 21-mer) and with ancrod (21-mer) were 24 s and 26 s, respectively.
On to 5' GGTTGGTGTGGTT*G*G 3', for which, in the data set with thrombin [4], the Ki (in general, a dissociation constant, usually derived from enzyme kinetics or from competition with a known ligand) is 40 nM. Moreover, in the data set on thrombin [5], the “PT clot time during infusion” value is listed as 2.5 to 2.7 times the control value.
In turn, “G*G*T*T*G*G*T*G*T*G*G*T*T*G*G: 15-mer with all thioate linkages” yielded an inhibition constant (Ki) with thrombin [4] of 280 nM.
Same read-out and setting: as for “GG(dU)TGGTGTGG(dU)TGG: 15-mer with uracil for thymine”, the figure is 80 nM; as for “GGTTGG(dU)G(dU)GGTTGG: 15-mer with uracil for thymine”, 15 nM; as for “GGTTGGTGTGGTTGG#G#T: closely related 17-mer with MEA linkages”, 35 nM.
Still for that read-out and setting: as for “GGTTGGTGTGGTU'GG: 15-mer with 5-(1-pentynyl)uracil”, the figure is 20 nM.
In the case of heparin, in the data set with human blood, the “time to blood coagulation in hemodialysis unit” value was > 80 min.

For the origin of these results see patent publication US5756291A, “Aptamers specific for biomolecules and methods of making” (priority 1995, dated 1998).
